ChEMBL document CHEMBL5465560, “Selectivity Literature for EUbOPEN Chemogenomic Library” (2024)
One block for each molecule: values may come before it.

Assays:
[1] = target: Vascular endothelial growth factor receptor 2 (Homo sapiens, UniProt P35968); experiment: Selectivity interaction (Kinase panel (literature)) EUB0001199aCl KDR; conditions: at 1 µM
[2] = target: T1, Aurora kinase A (Homo sapiens) (UniProt O14965); experiment: Selectivity interaction (ActivX KiNativ screen (kinase selectivity in THP-1 cell lysates)) EUB0000639a STK6; format: subcellular; conditions: lysate, at 0.04 µM
T1 sequence (whole entry): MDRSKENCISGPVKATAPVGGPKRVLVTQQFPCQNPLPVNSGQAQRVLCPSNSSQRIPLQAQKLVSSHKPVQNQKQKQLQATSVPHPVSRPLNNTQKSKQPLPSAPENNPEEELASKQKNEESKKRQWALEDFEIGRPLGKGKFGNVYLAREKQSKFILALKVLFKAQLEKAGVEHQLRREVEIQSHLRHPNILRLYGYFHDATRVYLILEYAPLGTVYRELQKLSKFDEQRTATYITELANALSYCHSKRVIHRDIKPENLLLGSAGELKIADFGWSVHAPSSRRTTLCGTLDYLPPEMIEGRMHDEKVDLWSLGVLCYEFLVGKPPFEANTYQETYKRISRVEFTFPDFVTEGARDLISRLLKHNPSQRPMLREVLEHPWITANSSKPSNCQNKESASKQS

[3] = target: T2, Kinase suppressor of Ras 1 (Homo sapiens) (UniProt Q8IVT5); experiment: Selectivity interaction (ActivX KiNativ screen (kinase selectivity in THP-1 cell lysates)) EUB0000639a KSR1; format: subcellular; conditions: lysate
T2 sequence (whole entry): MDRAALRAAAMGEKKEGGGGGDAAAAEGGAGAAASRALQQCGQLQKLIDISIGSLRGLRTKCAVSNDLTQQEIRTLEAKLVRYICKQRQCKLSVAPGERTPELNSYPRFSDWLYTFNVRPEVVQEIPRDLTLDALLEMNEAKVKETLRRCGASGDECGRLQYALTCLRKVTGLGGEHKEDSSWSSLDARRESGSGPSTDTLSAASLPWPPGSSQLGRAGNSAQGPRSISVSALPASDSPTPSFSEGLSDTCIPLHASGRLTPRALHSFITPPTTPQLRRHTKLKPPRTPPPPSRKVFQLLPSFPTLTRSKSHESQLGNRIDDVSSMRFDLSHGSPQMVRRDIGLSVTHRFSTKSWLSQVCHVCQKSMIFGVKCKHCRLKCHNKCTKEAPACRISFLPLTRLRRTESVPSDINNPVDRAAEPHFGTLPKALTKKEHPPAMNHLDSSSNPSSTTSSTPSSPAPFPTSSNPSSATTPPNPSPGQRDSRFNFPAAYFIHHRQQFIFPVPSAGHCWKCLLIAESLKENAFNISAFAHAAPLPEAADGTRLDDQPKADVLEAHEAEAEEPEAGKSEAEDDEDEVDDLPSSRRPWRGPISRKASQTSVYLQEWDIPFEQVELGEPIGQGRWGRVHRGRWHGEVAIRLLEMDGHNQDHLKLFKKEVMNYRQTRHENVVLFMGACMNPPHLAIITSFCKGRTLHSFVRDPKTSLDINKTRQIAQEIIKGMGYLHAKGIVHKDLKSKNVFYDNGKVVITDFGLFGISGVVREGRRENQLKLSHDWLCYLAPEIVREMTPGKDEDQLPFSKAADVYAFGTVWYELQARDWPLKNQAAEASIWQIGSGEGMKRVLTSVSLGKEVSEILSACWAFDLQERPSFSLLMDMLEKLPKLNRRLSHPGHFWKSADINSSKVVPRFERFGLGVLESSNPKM

[4] = target: Ribosomal protein S6 kinase alpha-1 (Homo sapiens, UniProt Q15418); experiment: Selectivity interaction (ActivX KiNativ screen (kinase selectivity in THP-1 cell lysates)) EUB0000639a RPS6KA1; format: subcellular; conditions: lysate, at 0.04 µM
[5] = target: T3, cAMP-dependent protein kinase catalytic subunit PRKX (Homo sapiens) (UniProt P51817); experiment: Selectivity interaction (KinomeScan (DiscoverX)) EUB0000655a PRKX; conditions: at 10 µM
T3 sequence (whole entry): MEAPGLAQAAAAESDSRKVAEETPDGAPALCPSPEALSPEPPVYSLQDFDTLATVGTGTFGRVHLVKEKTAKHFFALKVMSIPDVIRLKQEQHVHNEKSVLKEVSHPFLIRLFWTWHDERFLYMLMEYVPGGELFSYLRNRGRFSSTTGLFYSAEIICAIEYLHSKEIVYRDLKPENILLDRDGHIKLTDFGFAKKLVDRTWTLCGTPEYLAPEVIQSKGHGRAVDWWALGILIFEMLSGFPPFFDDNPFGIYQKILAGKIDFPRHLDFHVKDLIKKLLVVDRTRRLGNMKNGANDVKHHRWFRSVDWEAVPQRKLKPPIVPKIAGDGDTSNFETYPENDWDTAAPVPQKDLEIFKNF

[6] = target: T4, Tyrosine-protein kinase ZAP-70 (Homo sapiens) (UniProt P43403); experiment: Selectivity interaction (KinomeScan (DiscoverX)) EUB0000045b ZAP70; conditions: at 1 µM
T4 sequence (whole entry): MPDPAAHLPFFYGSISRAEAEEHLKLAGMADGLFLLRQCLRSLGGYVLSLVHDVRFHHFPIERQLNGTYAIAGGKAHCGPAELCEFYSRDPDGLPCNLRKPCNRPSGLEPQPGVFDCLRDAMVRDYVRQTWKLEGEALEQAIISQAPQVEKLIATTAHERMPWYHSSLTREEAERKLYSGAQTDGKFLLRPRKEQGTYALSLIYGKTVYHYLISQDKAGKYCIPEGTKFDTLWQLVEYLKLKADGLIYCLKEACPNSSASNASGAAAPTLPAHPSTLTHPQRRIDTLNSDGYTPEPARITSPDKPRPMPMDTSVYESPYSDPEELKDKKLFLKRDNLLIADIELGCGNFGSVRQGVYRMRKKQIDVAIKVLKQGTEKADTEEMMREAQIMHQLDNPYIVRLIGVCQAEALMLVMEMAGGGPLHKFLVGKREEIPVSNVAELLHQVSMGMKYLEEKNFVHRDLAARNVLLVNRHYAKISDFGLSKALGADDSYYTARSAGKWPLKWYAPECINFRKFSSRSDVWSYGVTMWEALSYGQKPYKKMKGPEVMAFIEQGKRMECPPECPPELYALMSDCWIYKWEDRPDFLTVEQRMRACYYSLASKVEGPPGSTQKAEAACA

[7] = target: Histone-lysine N-methyltransferase, H3 lysine-79 specific (Homo sapiens, UniProt Q8TEK3); conditions: at 10 µM
Sequence of Histone-lysine N-methyltransferase, H3 lysine-79 specific (Q8TEK3 whole entry, looked up): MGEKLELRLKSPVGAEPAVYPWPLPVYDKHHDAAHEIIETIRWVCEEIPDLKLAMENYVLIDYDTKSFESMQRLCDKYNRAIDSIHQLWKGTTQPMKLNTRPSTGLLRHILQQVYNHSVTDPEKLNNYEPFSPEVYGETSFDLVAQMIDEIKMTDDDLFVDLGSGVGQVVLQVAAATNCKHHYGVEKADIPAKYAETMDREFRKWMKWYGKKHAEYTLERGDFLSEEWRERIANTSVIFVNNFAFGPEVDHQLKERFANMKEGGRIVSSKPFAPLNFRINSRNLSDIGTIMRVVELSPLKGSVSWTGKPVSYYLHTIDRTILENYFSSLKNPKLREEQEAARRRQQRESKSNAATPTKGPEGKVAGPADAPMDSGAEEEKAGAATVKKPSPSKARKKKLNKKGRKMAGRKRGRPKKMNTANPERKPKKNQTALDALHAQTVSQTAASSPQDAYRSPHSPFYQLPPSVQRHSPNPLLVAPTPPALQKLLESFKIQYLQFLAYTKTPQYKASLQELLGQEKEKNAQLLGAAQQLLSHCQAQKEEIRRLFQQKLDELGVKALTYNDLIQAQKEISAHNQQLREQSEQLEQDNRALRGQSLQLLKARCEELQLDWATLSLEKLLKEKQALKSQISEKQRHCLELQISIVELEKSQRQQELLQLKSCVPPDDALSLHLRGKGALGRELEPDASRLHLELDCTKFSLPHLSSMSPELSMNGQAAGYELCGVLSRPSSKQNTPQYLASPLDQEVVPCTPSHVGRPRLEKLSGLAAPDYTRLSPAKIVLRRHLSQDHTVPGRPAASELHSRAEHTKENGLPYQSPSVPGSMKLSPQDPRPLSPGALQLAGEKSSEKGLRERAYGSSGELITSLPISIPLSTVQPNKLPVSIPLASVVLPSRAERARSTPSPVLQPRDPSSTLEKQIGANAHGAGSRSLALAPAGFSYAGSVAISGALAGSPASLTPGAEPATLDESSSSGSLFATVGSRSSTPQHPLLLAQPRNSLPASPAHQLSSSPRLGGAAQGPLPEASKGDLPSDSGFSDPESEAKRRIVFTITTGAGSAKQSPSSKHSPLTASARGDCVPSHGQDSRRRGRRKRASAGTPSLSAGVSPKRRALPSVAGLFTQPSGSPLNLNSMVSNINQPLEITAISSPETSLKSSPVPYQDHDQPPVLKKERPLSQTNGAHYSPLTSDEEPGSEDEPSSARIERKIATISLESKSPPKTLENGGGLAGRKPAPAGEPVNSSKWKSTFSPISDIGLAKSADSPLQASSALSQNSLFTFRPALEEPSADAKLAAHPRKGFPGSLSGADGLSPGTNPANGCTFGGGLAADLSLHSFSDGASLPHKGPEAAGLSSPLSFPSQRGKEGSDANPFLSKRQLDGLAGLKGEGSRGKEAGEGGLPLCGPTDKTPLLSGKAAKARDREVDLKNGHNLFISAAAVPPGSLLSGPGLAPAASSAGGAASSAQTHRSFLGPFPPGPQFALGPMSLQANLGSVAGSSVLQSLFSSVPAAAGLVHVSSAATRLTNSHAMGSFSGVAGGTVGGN

[8] = target: BMP-2-inducible protein kinase (Homo sapiens) (UniProt Q9NSY1); experiment: Selectivity interaction (KinomeScan (DiscoverX)) EUB0000092b BMP2K; conditions: at 10 µM
Sequence of BMP-2-inducible protein kinase (Homo sapiens) (Q9NSY1 whole entry, looked up): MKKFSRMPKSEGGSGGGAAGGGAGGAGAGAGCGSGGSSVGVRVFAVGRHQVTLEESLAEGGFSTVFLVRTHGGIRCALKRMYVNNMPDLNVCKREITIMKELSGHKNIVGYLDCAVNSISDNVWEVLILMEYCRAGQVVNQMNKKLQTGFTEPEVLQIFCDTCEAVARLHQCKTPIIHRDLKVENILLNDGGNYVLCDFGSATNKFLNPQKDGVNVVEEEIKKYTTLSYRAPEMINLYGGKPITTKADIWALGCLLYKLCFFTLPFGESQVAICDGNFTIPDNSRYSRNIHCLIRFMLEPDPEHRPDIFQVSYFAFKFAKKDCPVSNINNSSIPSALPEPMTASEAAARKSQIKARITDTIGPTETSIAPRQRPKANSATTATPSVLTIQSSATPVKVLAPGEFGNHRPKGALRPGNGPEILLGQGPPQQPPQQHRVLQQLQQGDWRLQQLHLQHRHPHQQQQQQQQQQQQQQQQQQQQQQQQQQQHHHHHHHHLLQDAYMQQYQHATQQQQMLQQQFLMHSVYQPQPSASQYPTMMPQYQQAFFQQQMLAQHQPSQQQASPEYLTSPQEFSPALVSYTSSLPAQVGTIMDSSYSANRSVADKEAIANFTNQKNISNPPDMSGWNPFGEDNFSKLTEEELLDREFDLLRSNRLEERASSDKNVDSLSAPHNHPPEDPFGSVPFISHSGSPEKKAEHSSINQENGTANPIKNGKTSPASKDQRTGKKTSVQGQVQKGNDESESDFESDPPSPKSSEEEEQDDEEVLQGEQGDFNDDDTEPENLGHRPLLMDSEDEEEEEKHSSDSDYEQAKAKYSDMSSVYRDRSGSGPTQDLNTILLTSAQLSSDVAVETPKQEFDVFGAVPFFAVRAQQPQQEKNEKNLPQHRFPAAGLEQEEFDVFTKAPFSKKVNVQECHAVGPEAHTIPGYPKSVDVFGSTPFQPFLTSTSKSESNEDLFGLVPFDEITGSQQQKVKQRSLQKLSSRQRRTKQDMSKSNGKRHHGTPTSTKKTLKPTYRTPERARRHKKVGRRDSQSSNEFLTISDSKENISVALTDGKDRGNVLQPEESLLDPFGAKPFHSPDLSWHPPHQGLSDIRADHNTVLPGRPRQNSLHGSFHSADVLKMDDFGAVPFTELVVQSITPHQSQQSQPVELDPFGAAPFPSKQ

[9] = target: Vascular endothelial growth factor receptor 3 (Homo sapiens, UniProt P35916); conditions: at 10 µM
Sequence of Vascular endothelial growth factor receptor 3 (P35916 whole entry): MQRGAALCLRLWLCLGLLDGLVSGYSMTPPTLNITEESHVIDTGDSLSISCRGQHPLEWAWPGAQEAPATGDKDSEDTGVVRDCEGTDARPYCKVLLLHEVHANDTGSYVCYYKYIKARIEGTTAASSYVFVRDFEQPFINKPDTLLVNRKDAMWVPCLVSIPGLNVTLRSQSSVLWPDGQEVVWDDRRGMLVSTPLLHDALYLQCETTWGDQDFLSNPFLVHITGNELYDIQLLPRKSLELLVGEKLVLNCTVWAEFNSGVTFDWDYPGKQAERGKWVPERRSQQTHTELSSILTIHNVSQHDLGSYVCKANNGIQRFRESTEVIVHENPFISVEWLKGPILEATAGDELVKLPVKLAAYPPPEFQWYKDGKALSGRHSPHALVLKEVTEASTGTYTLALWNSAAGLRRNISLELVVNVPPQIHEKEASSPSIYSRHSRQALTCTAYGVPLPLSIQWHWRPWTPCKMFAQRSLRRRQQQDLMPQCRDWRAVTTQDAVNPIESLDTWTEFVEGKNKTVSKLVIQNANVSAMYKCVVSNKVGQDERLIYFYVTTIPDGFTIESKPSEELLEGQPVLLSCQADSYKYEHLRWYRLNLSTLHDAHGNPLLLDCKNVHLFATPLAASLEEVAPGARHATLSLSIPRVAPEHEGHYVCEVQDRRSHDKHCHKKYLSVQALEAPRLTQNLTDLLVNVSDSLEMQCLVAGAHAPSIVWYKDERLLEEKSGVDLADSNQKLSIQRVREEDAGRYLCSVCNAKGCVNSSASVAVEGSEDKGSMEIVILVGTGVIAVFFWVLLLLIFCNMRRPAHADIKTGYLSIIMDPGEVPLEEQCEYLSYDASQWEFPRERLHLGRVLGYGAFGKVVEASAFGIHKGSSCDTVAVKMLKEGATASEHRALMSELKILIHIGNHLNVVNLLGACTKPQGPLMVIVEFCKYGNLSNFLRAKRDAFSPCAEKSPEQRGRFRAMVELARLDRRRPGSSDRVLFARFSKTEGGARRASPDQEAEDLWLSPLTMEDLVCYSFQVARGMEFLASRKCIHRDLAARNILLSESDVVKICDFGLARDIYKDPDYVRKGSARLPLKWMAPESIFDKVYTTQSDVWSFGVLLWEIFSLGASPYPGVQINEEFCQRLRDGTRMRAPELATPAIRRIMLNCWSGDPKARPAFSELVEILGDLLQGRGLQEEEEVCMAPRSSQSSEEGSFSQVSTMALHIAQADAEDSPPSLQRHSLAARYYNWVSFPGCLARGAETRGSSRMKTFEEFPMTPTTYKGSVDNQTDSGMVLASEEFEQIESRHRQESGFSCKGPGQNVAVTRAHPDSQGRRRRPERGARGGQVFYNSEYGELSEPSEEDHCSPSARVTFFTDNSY

[10] = target: Serine/threonine-protein kinase N2 (Homo sapiens, UniProt Q16513); experiment: Selectivity interaction (KinomeScan (DiscoverX)) EUB0000618a PKN2; conditions: at 10 µM
Sequence of Serine/threonine-protein kinase N2 (Q16513 whole entry, looked up): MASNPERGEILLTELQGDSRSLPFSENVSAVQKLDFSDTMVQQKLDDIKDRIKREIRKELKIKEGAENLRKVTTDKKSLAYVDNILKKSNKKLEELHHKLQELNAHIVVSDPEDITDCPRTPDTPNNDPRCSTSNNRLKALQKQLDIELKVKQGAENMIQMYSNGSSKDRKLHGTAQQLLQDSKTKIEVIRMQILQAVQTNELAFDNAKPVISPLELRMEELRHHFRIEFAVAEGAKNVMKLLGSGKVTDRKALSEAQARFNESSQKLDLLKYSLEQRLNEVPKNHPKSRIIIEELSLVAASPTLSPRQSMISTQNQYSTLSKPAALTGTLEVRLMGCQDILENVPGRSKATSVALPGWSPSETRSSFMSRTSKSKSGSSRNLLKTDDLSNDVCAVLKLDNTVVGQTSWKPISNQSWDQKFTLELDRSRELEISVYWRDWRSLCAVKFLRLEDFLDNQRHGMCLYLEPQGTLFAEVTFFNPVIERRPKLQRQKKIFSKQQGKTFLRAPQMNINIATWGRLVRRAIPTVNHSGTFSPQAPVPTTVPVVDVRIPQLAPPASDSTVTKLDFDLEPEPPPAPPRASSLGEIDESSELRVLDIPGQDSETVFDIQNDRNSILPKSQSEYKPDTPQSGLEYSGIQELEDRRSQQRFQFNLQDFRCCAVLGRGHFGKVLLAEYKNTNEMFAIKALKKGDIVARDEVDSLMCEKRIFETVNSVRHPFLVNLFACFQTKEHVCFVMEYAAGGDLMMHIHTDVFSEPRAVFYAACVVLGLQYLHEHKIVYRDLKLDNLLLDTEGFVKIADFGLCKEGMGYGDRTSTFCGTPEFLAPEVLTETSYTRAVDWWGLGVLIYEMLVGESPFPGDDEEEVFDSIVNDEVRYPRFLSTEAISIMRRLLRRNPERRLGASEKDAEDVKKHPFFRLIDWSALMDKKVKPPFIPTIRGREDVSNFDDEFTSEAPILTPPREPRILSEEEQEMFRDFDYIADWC

% of inhibition [1]: 8%
SMILES: CN1Cc2nccc(-c3cn(C)nc3-c3ccc(F)cc3)c2C1=O

% of inhibition [2]: -6.4%
% of inhibition ([3]; at 0.01 µM): 2.4%
% of inhibition ([3]; at 0.04 µM): -6.6%
% of inhibition ([3]; at 0.2 µM): -8.6%
% of inhibition ([3]; at 1 µM): -32.8%
% of inhibition ([3]; at 5 µM): -57.9%
% of inhibition [4]: -5.9%
SMILES: CC[C@@H]1[C@H](F)C(=O)N[C@@H]1COc1nccc2cc(C(N)=O)c(OC)cc12 [ZIMLOVISERTIB]

SMILES: CN(C)CCOc1ccc(-c2nc(-c3ccncc3)c(-c3ccc4c(c3)CC/C4=N\O)[nH]2)cc1
% of control [5]: 94%

SMILES: C=CC(=O)Nc1cc(-n2c(=O)ccc3cnc4ccc(-c5ccc(NS(C)(=O)=O)cc5)cc4c32)ccc1C
% of control [6]: 91%

% activity [7]: > 90%
SMILES: CNCCN1CCC(c2cc(CN(C)C(=O)c3cccc(Oc4ccccc4)c3)ccn2)CC1

SMILES: CCC(=O)N1CCN(c2ccc(-n3c(=O)ccc4cnc5ccc(-c6cnc7ccccc7c6)cc5c43)cc2C(F)(F)F)CC1
% of control [8]: 100%

SMILES: Cc1cc([C@@H](C)Nc2ccccc2C(=O)O)c2nc(N3CCOCC3)cc(=O)n2c1 [AZD-6482]
% of control [9]: 95%

SMILES: O[C@H]1CC[C@H](Nc2ncc3nc(Nc4c(F)cc(F)cc4F)n([C@H]4CCOC4)c3n2)CC1
% of control [10]: 97%
